Reference: US20250230193A1, “CYCLIC COMPOUND HAVING SELECTIVE KRAS INHIBITORY EFFECT ON HRAS AND NRAS” (CHUGAI SEIYAKU KABUSHIKI KAISHA, priority 2022, published 2025)
*1 amine or outer side, *2 acyl side, *3 side chain or, on linkers, in order; H or OH if unused. Where a SMILES comes first, the peptide text is derived from it. Bridges are numbered along the chain shown (N, C = ends). [ ]: non-standard residue; d: D form. The star is where a group is joined. hPhe(3-Cl-4-CF3) = N[C@@H](CCc1ccc(C(F)(F)F)c(Cl)c1)C(=O)O; NPrPhe(4-CF3) = CCCN[C@@H](Cc1ccc(C(F)(F)F)cc1)C(=O)O; NEtPhe(4-Me) = CCN[C@@H](Cc1ccc(C)cc1)C(=O)O; NMeGly(cPent) = CN[C@H](C(=O)O)C1CCCC1; Hyp = O=C(O)[C@@H]1C[C@@H](O)CN1; NMeI = CC[C@H](C)[C@H](NC)C(=O)O; NMeD = CN[C@@H](CC(=O)O)C(=O)O; NMeL = CN[C@@H](CC(C)C)C(=O)O; X14 = N#CCN(CC(=O)[*:2])[*:1]; Morpholide = C1CN(*)CCO1; Ac5c = NC1(C(=O)O)CCCC1; Ac4c = NC1(C(=O)O)CCC1; Sar = CNCC(=O)O

Legend:
[1] = target: GDP-bound NRAS wild-type protein (Homo sapiens, UniProt P01111); experiment: Binding to NRAS by surface plasmon resonance (SPR), Single Cycle Kinetics; conditions: SPR; for NRAS/KRAS (ratio of KD value for NRAS to KD value for KRAS) / NRAS/KRAS (ratio of KD value with respect to NRAS to KD value with respect to KRAS): GDP-bound NRAS wild-type vs GDP-bound KRAS wild-type; for NRAS/KRAS (ratio of KD value for GDP-bound NRAS wild-type protein to KD value for KRAS): KD ratio class
[2] = target: GDP-bound HRAS wild-type protein (Homo sapiens, UniProt P01112); experiment: Binding to HRAS by surface plasmon resonance (SPR), Single Cycle Kinetics; conditions: SPR; for HRAS/KRAS (ratio of KD value for HRAS to KD value for KRAS) / HRAS/KRAS (ratio of KD value with respect to HRAS to KD value with respect to KRAS): GDP-bound HRAS wild-type vs GDP-bound KRAS wild-type; for HRAS/KRAS (ratio of KD value for GDP-bound HRAS wild-type protein to KD value for KRAS): KD ratio class
GDP-bound HRAS wild-type protein, sequence (P01112 whole entry): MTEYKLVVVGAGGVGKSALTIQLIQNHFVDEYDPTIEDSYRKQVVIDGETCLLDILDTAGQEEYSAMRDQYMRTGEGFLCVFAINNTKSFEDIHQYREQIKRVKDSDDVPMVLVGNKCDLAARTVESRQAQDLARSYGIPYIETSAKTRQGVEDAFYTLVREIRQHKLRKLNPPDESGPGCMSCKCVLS

GDP-bound NRAS wild-type protein, sequence (P01111 whole entry): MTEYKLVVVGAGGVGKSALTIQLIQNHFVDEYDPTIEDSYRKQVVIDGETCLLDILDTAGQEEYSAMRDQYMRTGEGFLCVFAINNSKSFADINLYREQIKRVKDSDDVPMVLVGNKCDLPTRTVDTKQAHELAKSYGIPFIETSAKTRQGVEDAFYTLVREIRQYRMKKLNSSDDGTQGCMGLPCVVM

CCCN1C(=O)CN(C)C(=O)CNC(=O)[C@H]([C@@H](C)CC)NC(=O)[C@H](CC(C)C)N(C)C(=O)C[C@@H](C(=O)N2CCOCC2)NC(=O)[C@H](C2CCCC2)N(C)C(=O)C2(CCC2)NC(=O)[C@@H]2C[C@@H](OCC)CN2C(=O)[C@H](CCc2ccc(C(F)(F)F)c(Cl)c2)NC(=O)CN(C)C(=O)[C@@H]1Cc1ccc(C(F)(F)F)cc1 [PP0330] ([NMeL]IG[Sar][NPrPhe(4-CF3)][Sar][hPhe(3-Cl-4-CF3)][Hyp](Et)[Ac4c][NMeGly(cPent)]D-Morpholide; lactam N-11)
NRAS/KRAS (ratio of KD for GDP-bound NRAS wild-type to KD for KRAS) [1]: B (a compound having 3 or more and less than 10 is denoted as B)
HRAS/KRAS (ratio of KD for GDP-bound HRAS wild-type to KD for KRAS) [2]: C (A compound having a KD ratio of 0.1 or more and less than 3 is denoted as C)

CC[C@H](C)[C@@H]1NC(=O)[C@H](CC(C)C)N(C)C(=O)C[C@@H](C(=O)N2CCOCC2)N(C)C(=O)[C@H]([C@@H](C)CC)N(C)C(=O)C2(CCCC2)NC(=O)[C@@H]2CCCN2C(=O)[C@H](CCc2ccc(C(F)(F)F)c(Cl)c2)NC(=O)CN(C)C(=O)[C@H](Cc2ccc(C)cc2)N(CC)C(=O)CN(C)C(=O)CN(C)C1=O [PP0043] ([NMeL]I[Sar][Sar][NEtPhe(4-Me)][Sar][hPhe(3-Cl-4-CF3)]P[Ac5c][NMeI][NMeD]-Morpholide; lactam N-11)
NRAS/KRAS (ratio of KD for GDP-bound NRAS wild-type to KD for KRAS) [1]: C (A compound having a KD ratio of 0.1 or more and less than 3 is denoted as C)
HRAS/KRAS (ratio of KD for GDP-bound HRAS wild-type to KD for KRAS) [2]: C (A compound having a KD ratio of 0.1 or more and less than 3 is denoted as C)

CCC[C@H]1C(=O)N[C@@H]([C@@H](C)CC)C(=O)N(C)CC(=O)N(C)[C@H]2C/C=C\CCN(C2=O)[C@@H](Cc2ccc(C)cc2)C(=O)N(C)CC(=O)N[C@@H](CCc2ccc(C(F)(F)F)c(Cl)c2)C(=O)N2C[C@H](OCC)C[C@H]2C(=O)NC2(CC(C)(C)C2)C(=O)N(C)[C@@H](C2CCCC2)C(=O)N(C)[C@H](C(=O)N(C)C)CC(=O)N1C [PP1896]
NRAS/KRAS (ratio of KD value for NRAS to KD value for KRAS) ([1]; KD ratio): A (a compound having 10 or more and less than 20 is denoted as A)
HRAS/KRAS (ratio of KD value for HRAS to KD value for KRAS) ([2]; KD ratio): B (a compound having 3 or more and less than 10 is denoted as B)

CCO[C@@H]1C[C@H]2C(=O)NC3(CCC3)C(=O)N(C)[C@@H](C3CCCC3)C(=O)N(C)[C@H](C(=O)N(C)C)CC(=O)N(C)[C@@H](CC)C(=O)N[C@@H]([C@@H](C)CC)C(=O)N(C)CC(=O)N(C)[C@H]3CCCCN(C3=O)[C@@H](Cc3ccc(C(F)(F)F)cc3)C(=O)N(C)CC(=O)N[C@@H](CCc3ccc(C(F)(F)F)cc3F)C(=O)N2C1 [PP0885]
NRAS/KRAS (ratio of KD value with respect to NRAS to KD value with respect to KRAS) ([1]; KD ratio): C (A compound having a KD ratio of 0.1 or more and less than 3 is denoted as C)
HRAS/KRAS (ratio of KD value with respect to HRAS to KD value with respect to KRAS) ([2]; KD ratio): B (a compound having 3 or more and less than 10 is denoted as B)

CCO[C@@H]1C[C@H]2C(=O)NC3(CC(C)(C)C3)C(=O)N(C)[C@@H](C3CCCC3)C(=O)N(C)[C@H](C(=O)N(C)CC)CC(=O)N(C)[C@@H](COC)C(=O)N[C@@H]([C@@H](C)CC)C(=O)N(C)CC(=O)N(C)[C@H]3C/C=C\CCN(C3=O)[C@@H](Cc3ccc(C(F)(F)F)cc3)C(=O)N(C)CC(=O)N[C@@H](CCc3ccc(C(F)(F)F)c(OC)c3)C(=O)N2C1 [PP1679]
NRAS/KRAS (ratio of KD value for NRAS to KD value for KRAS) ([1]; KD ratio): A (a compound having 10 or more and less than 20 is denoted as A)
HRAS/KRAS (ratio of KD value for HRAS to KD value for KRAS) ([2]; KD ratio): A (a compound having 10 or more and less than 20 is denoted as A)

CCCOC[C@H]1C(=O)N[C@@H]([C@@H](C)CC)C(=O)N(C2CC2)CC(=O)N(C)[C@H]2C/C=C\CCN(C2=O)[C@@H](CC2CCC(F)(F)CC2)C(=O)N(C)CC(=O)N[C@@H](CCc2ccc(C(F)(F)F)c(OC)c2)C(=O)N2C[C@H](OCC)C[C@H]2C(=O)N(C)C2(CCC2)C(=O)N(C)[C@@H](C2CCCC2)C(=O)N(C)[C@H](C(=O)N(C)C)CC(=O)N1C [PP2354]
NRAS/KRAS (ratio of KD value with respect to NRAS to KD value with respect to KRAS) [1]: A (a compound having 10 or more and less than 20 is denoted as A)
HRAS/KRAS (ratio of KD value with respect to HRAS to KD value with respect to KRAS) [2]: A (a compound having 10 or more and less than 20 is denoted as A)

CCO[C@@H]1C[C@H]2C(=O)NC3(CC(C)(C)C3)C(=O)N(C)[C@@H](C(CC)CC)C(=O)N(C)[C@H](C(=O)N3CCCC3)CC(=O)N(C)[C@@H](COC)C(=O)N[C@@H]([C@@H](C)CC)C(=O)N(C)CC(=O)N(C)[C@H]3C/C=C\CCN(C3=O)[C@@H](Cc3ccc(C)cc3)C(=O)N(C)CC(=O)N[C@@H](CCc3cc(F)c(C(F)(F)F)c(F)c3)C(=O)N2C1 [PP2139]
NRAS/KRAS (ratio of KD value with respect to NRAS to KD value with respect to KRAS) [1]: AA (a compound having 20 or more is denoted as AA)
HRAS/KRAS (ratio of KD value with respect to HRAS to KD value with respect to KRAS) [2]: A (a compound having 10 or more and less than 20 is denoted as A)

CCO[C@@H]1C[C@H]2C(=O)NC3(CC(C)(C)C3)C(=O)N(C)[C@@H](C(CC)CC)C(=O)N(C)[C@H](C(=O)N(C)C)CC(=O)N(C)[C@@H](CC3CC3)C(=O)N[C@@H]([C@@H](C)CC)C(=O)N(C)CC(=O)N(C)[C@H]3C/C=C\CCN(C3=O)[C@@H](CC3CCC(F)(F)CC3)C(=O)N(C)CC(=O)N[C@@H](CCc3ccc(C(F)(F)F)c(OC)c3)C(=O)N2C1 [PP2480]
NRAS/KRAS (ratio of KD value with respect to NRAS to KD value with respect to KRAS) [1]: A (a compound having 10 or more and less than 20 is denoted as A)
HRAS/KRAS (ratio of KD value with respect to HRAS to KD value with respect to KRAS) [2]: A (a compound having 10 or more and less than 20 is denoted as A)

CCO[C@@H]1C[C@H]2C(=O)NC3(CCC3)C(=O)N(C)[C@@H](C3CCCC3)C(=O)N(C)[C@H](C(=O)N(C)CCOC)CC(=O)N(C)[C@@H](CC(C)C)C(=O)N[C@@H]([C@@H](C)CC)C(=O)N(C)CC(=O)N(C)[C@H]3C/C=C\CCN(C3=O)[C@@H](Cc3ccc(C(F)(F)F)cc3)C(=O)N(C)CC(=O)N[C@@H](CCc3ccc4sccc4c3)C(=O)N2C1 [PP1325]
NRAS/KRAS (ratio of KD value for GDP-bound NRAS wild-type protein to KD value for KRAS) [1]: A (a compound having 10 or more and less than 20 is denoted as A)
HRAS/KRAS (ratio of KD value for GDP-bound HRAS wild-type protein to KD value for KRAS) [2]: A (a compound having 10 or more and less than 20 is denoted as A)

CC[C@H](C)[C@@H]1NC(=O)[C@H](Cc2cccc(Cl)c2)N(C)C(=O)C[C@@H](C(=O)N2CCOCC2)N(C)C(=O)[C@H](C2CCCC2)N(C)C(=O)C2(CCCC2)NC(=O)[C@@H]2CCCN2C(=O)[C@H](CCc2ccc(C(F)(F)F)c(Cl)c2)NC(=O)CN(C)C(=O)[C@H](Cc2ccc(F)cc2)N2CCCCC[C@@H](C2=O)N(C)C(=O)CN(C)C1=O [PP0963]
NRAS/KRAS (ratio of KD value with respect to NRAS to KD value with respect to KRAS) ([1]; KD ratio): B (a compound having 3 or more and less than 10 is denoted as B)
HRAS/KRAS (ratio of KD value with respect to HRAS to KD value with respect to KRAS) ([2]; KD ratio): B (a compound having 3 or more and less than 10 is denoted as B)

CCCN1C(=O)CN(C)C(=O)CN(CC#N)C(=O)[C@H]([C@@H](C)CC)NC(=O)[C@H](CC(C)C)N(C)C(=O)C[C@@H](C(=O)N2CCOCC2)N(C)C(=O)[C@H](C2CCCC2)N(C)C(=O)C2(CCCC2)NC(=O)[C@@H]2CCCN2C(=O)[C@H](CCc2ccc(C(F)(F)F)c(Cl)c2)NC(=O)CN(C)C(=O)[C@@H]1Cc1ccc(C(F)(F)F)cc1 [PP0254] ([NMeL]I[X14][Sar][NPrPhe(4-CF3)][Sar][hPhe(3-Cl-4-CF3)]P[Ac5c][NMeGly(cPent)][NMeD]-Morpholide; lactam N-11)
NRAS/KRAS (ratio of KD for GDP-bound NRAS wild-type to KD for KRAS) [1]: B (a compound having 3 or more and less than 10 is denoted as B)
HRAS/KRAS (ratio of KD for GDP-bound HRAS wild-type to KD for KRAS) [2]: C (A compound having a KD ratio of 0.1 or more and less than 3 is denoted as C)

CCO[C@@H]1C[C@H]2C(=O)NC3(CCC3)C(=O)N(C)[C@@H](C3CCCC3)C(=O)N(C)[C@H](C(=O)N(C)CC)CC(=O)N(C)[C@@H](C)C(=O)N[C@@H]([C@@H](C)CC)C(=O)N(C)CC(=O)N(C)[C@H]3C/C=C\CCN(C3=O)[C@@H](Cc3ccc(C(F)(F)F)cc3)C(=O)N(C)CC(=O)N[C@@H](CCc3cc(F)c(C(F)(F)F)c(F)c3)C(=O)N2C1 [PP1302]
NRAS/KRAS (ratio of KD value for GDP-bound NRAS wild-type protein to KD value for KRAS) [1]: A (a compound having 10 or more and less than 20 is denoted as A)
HRAS/KRAS (ratio of KD value for GDP-bound HRAS wild-type protein to KD value for KRAS) [2]: A (a compound having 10 or more and less than 20 is denoted as A)

CCO[C@@H]1C[C@H]2C(=O)N(C)C3(CCC3)C(=O)N(C)[C@@H](C3CCCC3)C(=O)N(C)[C@H](C(=O)N(C)C)CC(=O)N(C)[C@@H](C3CC3)C(=O)N[C@@H]([C@@H](C)CC)C(=O)N(C)CC(=O)N(C)[C@H]3C/C=C\CCN(C3=O)[C@@H](Cc3ccc(C)cc3)C(=O)N(C)CC(=O)N[C@@H](CCc3cc(F)c(C(F)(F)F)c(F)c3)C(=O)N2C1 [PP1783]
NRAS/KRAS (ratio of KD value for NRAS to KD value for KRAS) ([1]; KD ratio): A (a compound having 10 or more and less than 20 is denoted as A)
HRAS/KRAS (ratio of KD value for HRAS to KD value for KRAS) ([2]; KD ratio): B (a compound having 3 or more and less than 10 is denoted as B)
